Results: patent publication US12440496B2, “Natriuretic peptide receptor a agonists useful for the treatment of cardiometabolic diseases, kidney disease and diabetes” (Merck Sharp & Dohme LLC, priority 2019, dated 2025)
pEC50: −log10 of the molar value.

Target: T1, hNPRA (Homo sapiens, UniProt P16066)
T1 construct: expressed in transfected cells
T1 sequence (P16066 33-1061): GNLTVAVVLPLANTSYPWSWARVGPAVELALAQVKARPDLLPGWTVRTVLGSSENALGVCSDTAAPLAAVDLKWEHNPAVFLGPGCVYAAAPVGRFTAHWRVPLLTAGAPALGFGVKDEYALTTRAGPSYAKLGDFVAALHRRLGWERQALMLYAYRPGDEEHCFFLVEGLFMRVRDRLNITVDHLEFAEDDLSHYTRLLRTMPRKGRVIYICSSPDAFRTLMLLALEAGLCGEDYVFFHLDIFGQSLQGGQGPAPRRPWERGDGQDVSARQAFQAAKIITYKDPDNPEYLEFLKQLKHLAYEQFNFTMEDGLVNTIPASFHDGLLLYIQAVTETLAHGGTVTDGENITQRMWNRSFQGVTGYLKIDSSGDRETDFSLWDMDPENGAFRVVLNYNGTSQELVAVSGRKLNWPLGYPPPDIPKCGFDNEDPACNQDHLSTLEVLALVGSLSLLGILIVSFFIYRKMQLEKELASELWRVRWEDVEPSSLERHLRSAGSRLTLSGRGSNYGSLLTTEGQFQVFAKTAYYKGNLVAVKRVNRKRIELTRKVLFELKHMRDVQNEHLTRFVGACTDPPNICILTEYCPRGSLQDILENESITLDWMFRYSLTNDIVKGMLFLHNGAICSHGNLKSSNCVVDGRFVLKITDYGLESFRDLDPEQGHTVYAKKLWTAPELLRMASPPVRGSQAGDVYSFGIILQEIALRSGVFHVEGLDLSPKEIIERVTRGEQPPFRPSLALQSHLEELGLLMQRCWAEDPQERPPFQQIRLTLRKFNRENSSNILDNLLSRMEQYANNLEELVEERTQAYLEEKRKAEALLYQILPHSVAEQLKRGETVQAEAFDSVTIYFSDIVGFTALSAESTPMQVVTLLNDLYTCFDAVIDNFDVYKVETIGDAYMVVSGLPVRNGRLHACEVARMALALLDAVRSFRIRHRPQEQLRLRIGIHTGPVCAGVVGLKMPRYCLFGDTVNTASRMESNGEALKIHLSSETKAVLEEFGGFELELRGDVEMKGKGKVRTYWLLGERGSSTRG
Experiment: NPRA Functional Cell Assay (cGMP HTRF, NPRA HEK JumpIn stable cells)
Type: cell-based
Settings: cGMP production, 1 hour at 37° C., 10-point dose response
Outline: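 cGMP HTRF read-out after 1 hour compound treatment at 37° C. of human NPRA-expressing HEK JumpIn cells, 1500 cells/well, in buffer with phosphodiesterase inhibitors IBMX and RO20 (100 uM each). Signal converted to [cGMP] by calibration curve; EC50s fitted by 4-parameter logistic; 50 nM h-ANP as positive response.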

| pEC50 | Structure (SMILES) |
| --- | --- |
| 7.15 | CC(C)[C@]1(F)CCc2nc3sc(C(=O)N[C@H](CCN4CCC(O)CC4)c4ccc(N5CCOCS5(=O)=O)nc4)nc3cc2C1 [Example 217, (S)-N-((R)-1-(6-(3,3-dioxido-1,3,4-oxathiazinan-4-yl)pyridin-3-yl)-3-(4-hydroxypiperidin-1-yl)propyl)-7-fluoro-7-isopropyl-5,6,7,8-tetrahydrothiazolo[5,4-b]quinoline-2-carboxamide] |
| 6.80 | CN1CC(NC(=O)c2cccc([C@@H](CCN3CCC(c4nnn[nH]4)CC3)NC(=O)c3nc4cc5c(nc4s3)CC[C@H](C(C)(C)C)C5)c2)C1 (racemic) [Example 103, rac-(7S)-7-tert-butyl-N-[rac-(1R)-1-[3-[(1-methylazetidin-1-ium-3-yl)carbamoyl]phenyl]-3-[4-(1H-tetrazol-5-yl)-1-piperidyl]propyl]-5,6,7,8-tetrahydrothiazolo[5,4-b] quinoline-2-carboxamide; 2,2,2-trifluoroacetate] |
| 5.66 | O=C(N[C@H](CCN1CCC(O)CC1)c1ccc(N2CCOC2=O)cc1)c1nc2cc3c(nc2s1)CC[C@H](C1(C(F)(F)F)CC1)C3 [Example 232, (S)-N-((R)-3-(4-hydroxypiperidin-1-yl)-1-(4-(2-oxooxazolidin-3-yl)phenyl)propyl)-7-(1-(trifluoromethyl)cyclopropyl)-5,6,7,8-tetrahydrothiazolo[5,4-b]quinoline-2-carboxamide] |
| 6.48 | CC(C)(C)[C@H]1CCc2nc3sc(C(=O)N[C@H](CCN4CCC(CO)C4)c4ccc(-c5ccc(=O)[nH]c5)cc4)nc3cc2C1 (mixture of isomers) [Example 74, rac-(7S)-7-tert-butyl-N-[rac-(1R)-3-[3-(hydroxymethyl)pyrrolidin-1-yl]-1-[4-(6-oxo-1H-pyridin-3-yl)phenyl]propyl]-5,6,7,8-tetrahydrothiazolo[5,4-b]quinoline-2-carboxamide] |
| 6.17 | CC(C)(C)[C@H]1CCc2nc3sc(C(=O)N[C@H](CCN4CCC(O)CC4)c4cccc(C(=O)NCCO)c4)nc3cc2C1 (racemic) [Example 151, rac-(7S)-7-tert-butyl-N-[rac-(1R)-1-[3-(2-hydroxyethylcarbamoyl)phenyl]-3-(4-hydroxy-1-piperidyl)propyl]-5,6,7,8-tetrahydrothiazolo[5,4-b]quinoline-2-carboxamide] |
| 6.11 | CC(C)(C)[C@H]1CCc2nc3sc(C(=O)N[C@H](CCN4CCC(O)CC4)c4ccc(-c5ccnc(N)c5)cc4)nc3cc2C1 (racemic) [Example 168, rac-(7S)-7-tert-butyl-N-[rac-(1R)-1-[4-(2-amino-4-pyridyl)phenyl]-3-(4-hydroxy-1-piperidyl)propyl]-5,6,7,8-tetrahydrothiazolo[5,4-b]quinoline-2-carboxamide] |
| 6.57 | CC(C)(C)[C@H]1CCc2nc3sc(C(=O)N[C@H](CCN4CCC(O)CC4)c4ccc(-c5ccc(=O)[nH]c5)cc4)nc3cc2C1 (racemic) [Example 73, rac-(7S)-7-tert-butyl-N-[rac-(1R)-3-(4-hydroxy-1-piperidyl)-1-[4-(6-oxo-1H-pyridin-3-yl)phenyl]propyl]-5,6,7,8-tetrahydrothiazolo[5,4-b]quinoline-2-carboxamide] |
| 6.17 | COC(=O)C1CCN(CC[C@@H](NC(=O)c2nc3cc4c(nc3s2)CC[C@H](C(C)(C)C)C4)c2cccc(C(=O)NC3CN(C)C3)c2)CC1 (racemic) [Example 114, methyl 1-[rac-(3R)-3-[3-[(1-methylazetidin-1-ium-3-yl)carbamoyl]phenyl]-3-[[rac-(7S)-7-tert-butyl-5,6,7,8-tetrahydrothiazolo[5,4-b]quinoline-2-carbonyl]amino]propyl] piperidine-4-carboxylate; 2,2,2-trifluoroacetate] |
| 6.16 | CC(C)(C)[C@H]1CCc2nc3sc(C(=O)N[C@H](CCN4CCC(O)C4)c4ccc(-c5ccc(=O)[nH]c5)cc4)nc3cc2C1 (mixture of isomers) [Example 78, rac-(7S)-7-tert-butyl-N-[rac-(1R)-3-(3-hydroxypyrrolidin-1-yl)-1-[4-(6-oxo-1H-pyridin-3-yl)phenyl]propyl]-5,6,7,8-tetrahydrothiazolo[5,4-b]quinoline-2-carboxamide] |

Second part, the compound before the results:

| Structure (SMILES) | pEC50 |
| --- | --- |
| CN(C)CC[C@@H](NC(=O)c1nc2cc3c(nc2s1)CC[C@H](C(C)(C)C)C3)c1cccc(C(=O)NCCO)c1 (racemic) [Example 95, rac-(7S)-7-tert-butyl-N-[rac-(1R)-3-(dimethylamino)-1-[3-(2-hydroxyethylcarbamoyl)phenyl]propyl]-5,6,7,8-tetrahydrothiazolo[5,4-b] quinoline-2-carboxamide] | 6.16 |
| CN(C)CC[C@@H](NC(=O)c1nc2cc3c(nc2s1)CC[C@H](C(C)(C)C)C3)c1cccc(C(=O)N2CCNCC2)c1 (racemic) [Example 97, rac-(7S)-7-tert-butyl-N-[rac-(1R)-3-(dimethyl-amino)-1-[3-(piperazine-1-carbonyl)phenyl]propyl]-5,6,7,8-tetrahydrothiazolo[5,4-b] quinoline-2-carboxamide] | 5.86 |
| CC(C)(C)[C@H]1CCc2nc3sc(C(=O)N[C@H](CCN4CCC4)c4cccc(NS(C)(=O)=O)c4)cc3cc2C1 (racemic) [Example 20, ammonium; methylsulfonyl-[3-[rac-(1R)-3-(azetidin-1-yl)-1-[[rac-(6S)-6-tert-butyl-5,6,7,8-tetrahydrothieno[2,3-b]quinoline-2-carbonyl]amino]propyl]phenyl]azanide] | 5.78 |
| CN(CCC(=O)O)CC[C@@H](NC(=O)c1nc2cc3c(nc2s1)CC[C@H](C(C)(C)C)C3)c1cccc(C(=O)NC2CN(C)C2)c1 (racemic) [Example 111, 3-[methyl-[rac-(3R)-3-[3-[(1-methylazetidin-1-ium-3-yl)carbamoyl]phenyl]-3-[[rac-(7S)-7-tert-butyl-5,6,7,8-tetrahydrothiazolo[5,4-b]quinoline-2-carbonyl]amino]propyl]amino] propanoic acid; 2,2,2-trifluoroacetate] | 6.19 |
| CN(C)CC[C@@H](NC(=O)c1nc2cc3c(nc2s1)CC[C@H](C(C)(C)C)C3)c1cccc(C(=O)NC2CN(C)C2)c1 (racemic) [Example 86, rac-(7S)-7-tert-butyl-N-[rac-(1R)-3-(dimethyl-amino)-1-[3-[(1-methylazetidin-3-yl)carbamoyl]phenyl]propyl]-5,6,7,8-tetrahydrothiazolo[5,4-b] quinoline-2-carboxamide] | 6.74 |
| CN(C)S(=O)(=O)Nc1ccc([C@@H](CCN2CCCOCC2)NC(=O)c2nc3cc4c(nc3s2)CC[C@H](C(C)(C)C)C4)cn1 (racemic) [Example 205, rac-(7S)-7-tert-butyl-N-[rac-(1R)-1-[6-(dimethylsulfamoylamino)-3-pyridyl]-3-(1,4-oxazepan-4-ium-4-yl)propyl]-5,6,7,8-tetrahydrothiazolo[5,4-b]quinoline-2-carboxamide; 2,2,2-trifluoroacetate] | 6.25 |
| CC(C)(C)[C@H]1CCc2nc3sc(C(=O)N[C@H](CCN4CC5CC4CO5)c4ccc(-c5ccc(=O)[nH]c5)cc4)cc3cc2C1 (mixture of isomers) [Example 53, rac-(6S)-6-tert-butyl-N-[rac-(1R)-3-(2-oxa-5-azoniabicyclo[2.2. 1]heptan-5-yl)-1-[4-(6-oxo-1H-pyridin-3-yl)phenyl]propyl]-5,6,7,8-tetrahydrothieno[2,3-b]quinoline-2-carboxamide;formate] | 6.12 |
| CC(C)(C)[C@H]1CCc2nc3sc(C(=O)N[C@H](CCNC4CCNC(=O)C4)c4ccc(-c5ccc(=O)[nH]c5)cc4)cc3cc2C1 (mixture of isomers) [Example 54, (2-oxo-4-piperidyl)-[rac-(3R)-3-[4-(6-oxo-1H-pyridin-3-yl)phenyl]-3-[rac-(6S)-6-tert-butyl-5,6,7,8-tetrahydrothieno[2,3-b]quinoline-2-carbonyl]amino]propyl] ammonium;formate] | 6.12 |
| CC(C)(C)[C@H]1CCc2nc3sc(C(=O)N[C@H](CCN4CCC[C@@H]4CO)c4ccccc4)cc3cc2C1 [Example 262, (6S)-6-tert-butyl-N-{(1R)-3-[(2R)-2-(hydroxymethyl)pyrrolidin-1-yl]-1-phenylpropyl}-5,6,7,8-tetrahydrothieno[2,3-b]quinoline-2-carboxamide] | 5.20 |
